In patent US7744867B2, “PTPase inhibitors and method of using same” (The Cleveland Clinic Foundation, priority 2001, dated 2010):

Key:
recombinant PRL-3 = target: T1, recombinant PRL-3 (Homo sapiens, UniProt O75365); assay: In vitro PTPase assay with recombinant PRL (peptide or DiFMUP substrate); assay type: biochemical
T1 construct: made in house; host or cells: E. coli DH5α
Protocol: In vitro PTPase activities were measured using the commercial protein tyrosine phosphatase assay kit (UBI) following established procedure. […] 100 μl of Malachite Green solution was added and incubated for 5 minutes, and the absorbance at 660 nm was measured after 5 minutes.
Recombinant GST fusion proteins of human PRL-1, 2 and 3 phosphatases were purified with glutathione beads from DH5α bacteria transformed by pGEX vectors containing cDNA fragments encoding the human PRLs which were generated by RT-PCR from H9 cells and confirmed by sequence analysis. Activities of the purified recombinant PRL proteins in dephosphorylating DiFMUP in the absence or presence of various inhibitors were measured following established procedure.
To assess whether sodium stibogluconate is an inhibitor of oncogenic PRL phosphatases, its effects on the PTPase activity of recombinant PRLs were evaluated by in vitro PTPase assays.

intracellular Flag-PRL-2 = target: T2, intracellular Flag-PRL-2 (Homo sapiens, UniProt Q12974); assay: PTPase activity of anti-Flag immunocomplexes from NIH3T3 transfectants; assay type: cell-based
T2 construct: expressed in transfected cells; host or cells: NIH3T3
T2 sequence (Q12974 1-167): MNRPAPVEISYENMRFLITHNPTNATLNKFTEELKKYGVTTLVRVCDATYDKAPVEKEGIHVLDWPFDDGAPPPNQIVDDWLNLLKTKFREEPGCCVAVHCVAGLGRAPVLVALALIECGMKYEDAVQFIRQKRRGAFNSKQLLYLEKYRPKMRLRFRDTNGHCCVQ
Protocol: An expression construct of Flag-tagged PRL-1 or control vector was transfected into NIH3T3 cells which were then treated without or with sodium stibogluconate and used for immunoprecipitation assays with a monoclonal anti-Flag antibody. The immunocomplexes were analyzed by SDS-PAGE/Western blotting and PTPase assays. A Flag-tagged protein with a molecular weight approximately 22 kDa as expected for Flag-PRL-1 was detected in the immunocomplexes from untreated or sodium stibogluconate -treated Flag-PRL-1 transfectants but not in those from the control cells (FIG. 6A).
Flag-PRL-2 transfectants were briefly treated with sodium stibogluconate for 5 minutes, washed to remove cell-free drug and then incubated for various times prior to termination by cell lysis. Anti-Flag immunocomplexes from the cells were analyzed by SDS-PAGE/Western blotting and PTPase assays. The amounts of Flag-PRL-2 proteins in the immunocomplexes were at similar levels as quantified by probing with an anti-Flag antibody. […] PTPase activity of the immunocomplexes from cells incubated for 24 hours was 78% of the untreated cells.
Glucatime-induced inactivation of intracellular PRL-2 lasts more than 24 hours. NIH3T3 stable transfectant of Flag-tagged PRL-2 was treated with glucatime for 5 minutes, washed to remove cell free drug and then incubated for various times prior to termination by lysing the cells in lysis buffer. Flag-tagged PRL-2 was immunoprecipitated from the cell lysates using a monoclonal anti-Flag antibody. The amounts of Flag-tagged PRL-2 in the immunocomplexes were quantified by SDS-PAGE/Western blotting with the anti-Flag antibody (A). Activities of the immunocomplexes in dephosphorylating a synthetic phosphotyrosine peptide were determined by in vitro PTPase assays (B).

TF-1 cells = assay: Proliferation of TF-1 cells with GM-CSF and IFNα (MTT); assay type: cell-based, human; conditions: at 50 μg/ml; GM-CSF 5-40 ng/ml
Protocol: FIG. 7 illustrates that sodium stibogluconate augments the opposite effects of GM-CSF and IFNα on TF-1 cell growth: A. Proliferation of TF-1 cells cultured in the presence of various amounts of GM-CSF and with or without sodium stibogluconate for three days was measured by MTT assays; B. Proliferation of TF-1 cells cultured in the presence of GM-CSF (50 ng/ml) and various amounts of IFNα with or without sodium stibogluconate (50 μg/ml) for three days was measured by MTT assays; C. The results in B shown as percentage inhibition of cell growth; D. Proliferation of TF-1 cells in the presence of GM-CSF (20 ng/ml) and various amounts of sodium stibogluconate for 6 days was measured by MTT assays; E. Proliferation of TF-1 cells in the presence of GM-CSF (20 ng/ml)/IFNα (1,000 u/ml) and various amounts of sodium stibogluconate for 6 days was measured by MTT assays.
The murine hematopoietic cell line Baf3 was maintained in RPMI 1640 medium supplemented with 10% fetal calf serum (FCS) and murine IL-3 (20 units/ml) as described previously. Human myeloid cell line TF-1 was maintained in RPMI 1640 supplemented with 10% FCS and 40 ng/ml of recombinant human GM-CSF as described previously. […] The cell numbers in proliferation assays were determined by an MTT assay or by microscopic cell counting as indicated.

Leishmaniasis = conditions: cited from earlier work
GST/SHP-1 fusion protein = target: T3, GST/SHP-1 fusion protein (Mus musculus, UniProt P29351); assay: Reversibility of SHP-1 inhibition (washing of bead-bound GST/SHP-1); assay type: biochemical; conditions: preincubated with inhibitor, then washed
T3 construct: made in house
T3 sequence (P29351 whole entry, the tested form may be a part): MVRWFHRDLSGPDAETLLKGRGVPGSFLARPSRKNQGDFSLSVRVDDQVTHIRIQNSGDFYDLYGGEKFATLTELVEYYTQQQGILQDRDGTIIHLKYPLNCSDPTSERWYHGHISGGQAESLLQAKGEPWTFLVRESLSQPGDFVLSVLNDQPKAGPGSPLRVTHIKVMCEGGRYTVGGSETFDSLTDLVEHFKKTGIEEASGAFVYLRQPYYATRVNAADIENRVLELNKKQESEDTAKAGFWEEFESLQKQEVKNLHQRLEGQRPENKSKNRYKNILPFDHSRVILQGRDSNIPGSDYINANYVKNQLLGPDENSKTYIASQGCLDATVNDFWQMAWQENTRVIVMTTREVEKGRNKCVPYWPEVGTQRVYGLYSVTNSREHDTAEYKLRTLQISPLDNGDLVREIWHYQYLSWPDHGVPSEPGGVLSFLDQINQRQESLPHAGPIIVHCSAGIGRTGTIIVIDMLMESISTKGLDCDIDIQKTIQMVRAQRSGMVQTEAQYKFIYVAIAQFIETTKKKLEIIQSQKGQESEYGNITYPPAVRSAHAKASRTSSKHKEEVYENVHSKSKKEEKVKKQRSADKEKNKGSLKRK
Description: The beads were then washed 3 times in Tris buffer or without washing prior to in vitro PTPase assays.

[1] = test system: WiT49-N1 cells (Wilms tumor); assay: Growth inhibition of human tumor cell lines (MTT); assay type: cell-based; conditions: SS 12.5 μg/ml, IFNα 1,000 u/ml, alone or combined
Description: FIG. 9 illustrates growth inhibition of human cell lines of non-hematopoietic malignancies by sodium stibogluconate and/or IFNα. Percentage of growth inhibition of WM9 (A), DU145 (B), MDA231 (C) and WiT49-N1 (D) in the absence or presence of various amounts of sodium stibogluconate and/or IFNα (1,000 u/ml) in day 6 cultures as measured by MTT assays.

Melanomas = conditions: melanoma patients; cited from earlier work
[2] = test system: MDA435 cells (Breast cancer); assay: Growth inhibition of human tumor cell lines; assay type: cell-based; conditions: SS 12.5 μg/ml, IFNα 1,000 u/ml, alone or combined

T1 sequence (O75365 whole entry): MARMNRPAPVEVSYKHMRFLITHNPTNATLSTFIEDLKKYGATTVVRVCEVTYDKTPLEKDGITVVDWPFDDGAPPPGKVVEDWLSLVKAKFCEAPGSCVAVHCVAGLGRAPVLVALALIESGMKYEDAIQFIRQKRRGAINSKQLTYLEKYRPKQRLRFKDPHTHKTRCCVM

O.O.O.O.O.O.O.O.O.O=C([O-])[C@@H]1[O][Sb]2([O-])([O][Sb]34([OH])[O][C@H]([C@H](O)CO)[C@H]([O]3)[C@H](C(=O)[O-])[O]4)[O][C@H]([C@H](O)CO)[C@@H]1[O]2.[Na+].[Na+].[Na+] [sodium stibogluconate]
inhibition of PRL-3 after prolonged pre-incubation (recombinant PRL-3; pre-incubation 30 or 60 minutes, 10 mg/ml): nearly complete inactivation | reversibility of PRL-3 inactivation (recombinant PRL-3; washing process): not relieved | PTPase activity of Flag-PRL-2 immunocomplexes from treated transfectants (intracellular Flag-PRL-2; treated 5 min): lack of PTPase activity | duration of intracellular PRL-2 inactivation (intracellular Flag-PRL-2; treated 5 minutes, washed to remove cell free drug): at least 24 hours | GM-CSF-induced proliferation of TF-1 cells (TF-1 cells): augmented | efficacy in Leishmaniasis (Leishmaniasis; 20 mg Sb/kg body weight per day i.m. daily for 10-14 days): 70-100% | known toxicity profile (Leishmaniasis; human, in vivo): modest cardiac toxicity and leukopenia | single dose used without serious toxicity (Leishmaniasis; human, in vivo): up to 143 mg Sb/kg | reversibility of SHP-1 inhibition (GST/SHP-1 fusion protein): stable complexes

IFNα
% of growth inhibition by day 6 (±s.d.) [1]: 22 (11) % | response rates (Melanomas): 15% | % of growth inhibition by day 6 (±s.d.) [2]: 29 (15) %
